Entries after “also recorded” stand apart in the source; their conditions may differ. Ends that are not written are not given here.
Legend:
[1] = Effect of D-peptides on plasma stability of KAI-9706
Protocol: KAI-9706 was engineered with D-amino acids to determine their impact on peptide composition stability. Unmodified KAI-9706 was compared to a peptide composition with the same amino acid sequence, however the amino acids used were d-enantiomers instead of 1-amino acids. A retro-inverso version and a scrambled version of the peptide composition were also prepared.

[2] = Plasma stability of capped peptides (KAI-9706 modified at amino and carboxy termini); conditions: rat
Protocol: Plasma stability of capped peptides was compared. KAI-9706 was modified step-wise at its amino and carboxy termini. Plasma stability as measured by the percent of peptide composition remaining after 15 minutes.

[3] = system: patients with acute anterior STEMI; experiment: DELTA MI trial: intracoronary KAI-9803 during primary PCI for acute anterior STEMI
Protocol: Safety and biomarker end points were assessed.
The following example is a clinical treatment of acute ST-elevation myocardial infarction (STEMI) using the compositions and methods provided in the invention.
Patients were recommended to receive aspirin (162-325 mg orally), a thienopyridine loading dose (clopidogrel 300-600 mg or ticlopidine 500 mg), unfractionated heparin, and glycoprotein IIb-IIIa inhibitors during PCI. […] After verifying the final angiographic inclusion criteria during diagnostic angiography, randomization and study drug preparation occurred in the catheterization laboratory before the beginning of the PCI procedure.
Study drug was reconstituted into a clear solution at 1 of 4 concentrations using serial dilutions with 0.9% sodium chloride solution. Study drug was administered during PCI in the following sequence. First, the guidewire was passed across the obstruction in the left anterior descending (LAD) infarct vessel and an over-the-wire balloon catheter was positioned at the level of the obstruction. Second, the guidewire was removed, and dilute contrast was injected to confirm positioning of the catheter tip downstream from the obstruction and to assess patency of the distal vessel. The contrast injection was followed by a saline flush, and the guidewire was reinserted. Third, the balloon was inflated, and, after removing the guidewire, 2 mL of blinded study drug were hand injected slowly into the distal vascular bed over at least 1 minute. Fourth, the guidewire was readvanced through the catheter into the distal vessel, and the balloon was deflated. Finally, after antegrade epicardial coronary flow was re-established following initial balloon inflations, 3 mL of blinded study drug were injected through the guide catheter positioned at the ostium of the left main coronary artery. The PCI procedure was then completed according to standard technique.
After initial informed consent was obtained and before diagnostic angiography was performed, a continuous digital 12-lead ECG monitor (NEMON 180+, Northeast Monitoring, Natick, Mass.) was applied and baseline serum samples were obtained for analyses of cardiac markers including creatine kinase (CK and CK-MB), troponin T, and N-terminal pro-brain natriuretic peptide (BNP).
After completion of the PCI procedure, angiography was performed a minimum of 10 minutes after the final balloon inflation and a minimum of 30 minutes after antegrade epicardial flow was re-established to measure TIMI (Thrombolysis in Myocardial Infarction) flow grade, corrected TIMI frame count, and TIMI myocardial perfusion grade (TMPG). TMPG was assessed approximately 30 minutes after administration of study drug and prior to intracoronary administration of adenosine. Coronary flow reserve was determined by measuring corrected TIMI frame count before and after administration of 18-24 mcg of intracoronary adenosine. A left ventriculogram was performed to assess ejection fraction.
The continuous ECG monitor was removed after 24 hours of data collection. Continuous ST-segment recovery analysis was performed in a blinded core laboratory. End points assessed from measurement of continuous 12-lead ECGs included time to stable ST recovery, % ST-segment resolution at serial static time points, and ST recovery time-trend curve area defined by summated ST-segment resolution and re-elevation integrated over the first 3 hours following PCI.
Blood collection for CK-MB levels was performed at 3-6 hours, 6-12 hours, 18-24 hours, and 36 hours after randomization.

[4] = 100 μg/ml, room temperature, LC/MS
Protocol: The effect of N-terminal acetylation and C-terminal amidation on compound stability in plasma and serum from rat and human was studied. The compounds were tested in the plasma/serum at a concentration of 100 μg/ml. The solutions were incubated at room temperature, precipitated with 5% TCA, and then the supernatant was neutralized with ammonium acetate. The peptides were then analyzed by LC/MS.

[5] = Stability of linear versus disulfide linked peptides in PBS solution; format: physicochemical; conditions: conditions described in Example 15 (so in the source), FIGS. 8, 9 and 15
Protocol: The peptides were placed in solution at 0.1 mg/ml in PBS (pH 7.4) at 37° C.
Linear and disulfide bond linked versions of PKC-βI and PKC-βII peptide compositions were incubated under the conditions described in Example 15.
In particular, the Asn residues at position 7 of the β-I and β-II peptides and the Gln at position 2 of the β-II peptide. These linear peptide compositions were modified by substituting the Gly immediately C-terminal to the Asn with either Leu in the β-I peptide composition or Gly to Ile in the β-II peptide composition. The Gln at position 2 of the β-II peptide composition was also substituted with a Glu residue. The stability of the peptides was studied under the conditions described in Example 15.

rat heart = experiment: Rat heart model (Langendorff assay) of ischemic damage, CK release; conditions: Langendorff in vitro post-ischemia model, 10 minutes perfusion, FIG. 16
Protocol: The ability of the capped composition to inhibit ischemic damage in a rat heat model (Langendorff Assay) was evaluated versus the uncapped form.

CC[C@@H](C)[C@@H](NC(=O)[C@H]1CCCN1C(=O)[C@@H](C)NC(=O)[C@@H](CC(=O)O)NC(=O)[C@@H](Cc1c[nH]cn1)NC(=O)[C@H](N)CSSC[C@@H](N)C(=O)N[C@H](Cc1ccc(O)cc1)C(=O)NCC(=O)N[C@H](CCCNC(=N)N)C(=O)N[C@H](CCCCN)C(=O)N[C@H](CCCCN)C(=O)N[C@H](CCCNC(=N)N)C(=O)N[C@H](CCCNC(=N)N)C(=O)N[C@H](CCC(N)=O)C(=O)N[C@H](CCCNC(=N)N)C(=O)N[C@H](CCCNC(=N)N)C(=O)N[C@H](CCCNC(=N)N)C(=O)O)C(=O)NCC(=O)N[C@H](Cc1ccc(O)cc1)C(=O)N[C@H](CC(=O)O)C(=O)O [KAI-9706 carrier All-D cargo All-D]
remaining at 0.25 h [1]: 100%

CC[C@H](C)[C@H](NC(=O)[C@@H]1CCCN1C(=O)[C@H](C)NC(=O)[C@H](CC(=O)O)NC(=O)[C@H](Cc1c[nH]cn1)NC(=O)[C@@H](N)CSSC[C@@H](N)C(=O)N[C@H](Cc1ccc(O)cc1)C(=O)NCC(=O)N[C@H](CCCNC(=N)N)C(=O)N[C@H](CCCCN)C(=O)N[C@H](CCCCN)C(=O)N[C@H](CCCNC(=N)N)C(=O)N[C@H](CCCNC(=N)N)C(=O)N[C@H](CCC(N)=O)C(=O)N[C@H](CCCNC(=N)N)C(=O)N[C@H](CCCNC(=N)N)C(=O)N[C@H](CCCNC(=N)N)C(=O)O)C(=O)NCC(=O)N[C@@H](Cc1ccc(O)cc1)C(=O)N[C@@H](CC(=O)O)C(=O)O [KAI-9706 carrier All-D cargo All-L]
remaining at 0.25 h [1]: 88%

CC[C@@H](C)[C@@H](NC(=O)[C@H]1CCCN1C(=O)[C@@H](C)NC(=O)[C@@H](CC(=O)O)NC(=O)[C@@H](Cc1c[nH]cn1)NC(=O)[C@H](N)CSSC[C@H](N)C(=O)N[C@@H](Cc1ccc(O)cc1)C(=O)NCC(=O)N[C@@H](CCCNC(=N)N)C(=O)N[C@@H](CCCCN)C(=O)N[C@@H](CCCCN)C(=O)N[C@@H](CCCNC(=N)N)C(=O)N[C@@H](CCCNC(=N)N)C(=O)N[C@@H](CCC(N)=O)C(=O)N[C@@H](CCCNC(=N)N)C(=O)N[C@@H](CCCNC(=N)N)C(=O)N[C@@H](CCCNC(=N)N)C(=O)O)C(=O)NCC(=O)N[C@H](Cc1ccc(O)cc1)C(=O)N[C@H](CC(=O)O)C(=O)O [KAI-9706 carrier All-L cargo All-D]
remaining at 0.25 h [1]: 0%

CC[C@H](C)[C@H](NC(=O)[C@@H]1CCCN1C(=O)[C@H](C)NC(=O)[C@H](CC(=O)O)NC(=O)[C@H](Cc1c[nH]cn1)NC(=O)[C@@H](N)CSSC[C@H](N)C(=O)N[C@@H](Cc1ccc(O)cc1)C(=O)NCC(=O)N[C@@H](CCCNC(=N)N)C(=O)N[C@@H](CCCCN)C(=O)N[C@@H](CCCCN)C(=O)N[C@@H](CCCNC(=N)N)C(=O)N[C@@H](CCCNC(=N)N)C(=O)N[C@@H](CCC(N)=O)C(=O)N[C@@H](CCCNC(=N)N)C(=O)N[C@@H](CCCNC(=N)N)C(=O)N[C@@H](CCCNC(=N)N)C(=O)O)C(=O)NCC(=O)N[C@@H](Cc1ccc(O)cc1)C(=O)N[C@@H](CC(=O)O)C(=O)O [KAI-9706]
remaining at 0.25 h [2]: 1%
% parent remaining at 15 mins ([1]; All-L, All-D, scrambled or retro-inverso (R/I) carrier and cargo): 1%

CC(C)C[C@H](NC(=O)[C@H](CO)NC(=O)CNC(=O)[C@H](CC(C)C)NC(=O)[C@H](CCC(=O)O)NC(=O)[C@H](Cc1ccc(O)cc1)NC(=O)[C@H](CO)NC(=O)[C@H](CC(N)=O)NC(=O)[C@H](Cc1ccccc1)NC(=O)[C@H](CO)NC(=O)[C@@H](N)CSSC[C@H](N)C(=O)N[C@@H](Cc1ccc(O)cc1)C(=O)NCC(=O)N[C@@H](CCCNC(=N)N)C(=O)N[C@@H](CCCCN)C(=O)N[C@@H](CCCCN)C(=O)N[C@@H](CCCNC(=N)N)C(=O)N[C@@H](CCCNC(=N)N)C(=O)N[C@@H](CCC(N)=O)C(=O)N[C@@H](CCCNC(=N)N)C(=O)N[C@@H](CCCNC(=N)N)C(=O)N[C@@H](CCCNC(=N)N)C(=O)O)C(=O)O [KAI-9803]
investigator-reported CHF events ([3]; active study drug group, through 6 months, number of events): 21
incidence of serious adverse events versus placebo ([3]; all cohorts): similar
changes in clinical laboratory values from baseline through 48 hours versus placebo ([3]; blood counts, electrolytes, BUN, creatinine, liver function tests): no differences
incidence of serious adverse events through 30 days ([3]; cohort 1 (0.05 mg)): 30.4%
incidence of serious adverse events through 30 days ([3]; cohort 2 (0.5 mg)): 16.0%
incidence of serious adverse events through 30 days ([3]; cohort 3 (1.25 mg)): 19.2%
incidence of serious adverse events through 30 days ([3]; cohort 4 (5.0 mg)): 35.7%
median maximum change in the QT interval from baseline until after the second dose ([3]; pooled active study drug): 16.9 ms

Ac-EAVSLKPTGGYGRKKRRQRRR-NH2 [KP-1678]
stability in human serum [4]: increased stability

Ac-GEEVIRNISGYGRKKRRQRRR-NH2 [modified linear β-II peptide composition]
stability in solution of PKC-βI and PKC-βII peptide compositions [5]: served to stabilize; also recorded: improved stability

Ac-GKLFIMNLSGYGRKKRRQRRR-NH2 [modified linear β-I peptide composition]
stability in solution of PKC-βI and PKC-βII peptide compositions [5]: served to stabilize; also recorded: stabilized

EAVSLKPTGGYGRKKRRQRRR-NH2 [KP-1633]
stability in human serum [4]: increased stability

KAI-1355: truncated version of KAI-9803 in which the carboxy terminal leucine was removed; cargo CSFNSYELGS
potency in protecting cardiac tissue from ischemia (creatine kinase release) (rat heart): potency comparable to that of the full length KAI-9803

— US20090318351A1, “METHOD OF TREATING ACUTE ST-ELEVATION MYOCARDIAL INFARCTION WITH A DELTA PKC ANTAGONIST” (priority 2008, published 2009)
